Assay results as given in patent US6509337B1, “Arylsulfonyl Hydroxamic Acid derivatives as MMP and TNF inhibitors” (Pfizer Inc., priority 1997, dated 2003).

COc1ccc(S(=O)(=O)N2CC=CC(c3ccccc3)C2C(=O)NO)cc1 (stereo not shown) [Example 2, N-hydroxy-1-(4-methoxybenzenesulfonyl)-3-phenyl-1,2,3,6-tetrahydropyridine-2-carboxamide]
melting point: 151 to 154 °C (dec.)
